Values after ≈ are worked out from the molar mass of the structure shown. Each block holds one molecule with its values, some of them ahead of it.
What was measured:
Assay in all cases: ≥ marks a high value that may be exact or a test limit, other limits are often not marked, values filed in µg/mL are converted to µM
Escherichia coli TOP 10 = test system: Escherichia coli TOP 10
[1] = test system: Staphylococcus aureus SH1000
[2] = test system: Klebsiella oxytoca W99FI00049
[3] = test system: Serratia marcescens W99FI0111
[4] = test system: Elizabethkingia meningoseptica CCUG 4310
[5] = test system: Klebsiella aerogenes W03BG0067
[6] = test system: Staphylococcus aureus MIU-68A
[7] = test system: Enterobacter cloacae W03AN0041
[8] = test system: Pseudomonas aeruginosa 891
[9] = test system: Stenotrophomonas maltophilia PT4/99
[10] = test system: Pseudomonas aeruginosa VA463/98
[11] = test system: Pseudomonas aeruginosa 885149
[12] = test system: Pseudomonas aeruginosa ATCC 27853
[13] = test system: Escherichia coli ATCC 25922
Klebsiella pneumoniae = test system: Klebsiella pneumoniae
[14] = test system: Providencia stuartii W03FI0001
[15] = test system: Burkholderia cepacia SMC 71
[16] = test system: Citrobacter freundii W99FI00007
[17] = test system: Acinetobacter baumannii AB1MG
[18] = test system: Staphylococcus aureus ATCC 29213
[19] = test system: Morganella morganii W03VA1342
[20] = test system: Acinetobacter baumannii AB7MG
[21] = test system: Proteus mirabilis W03VA1144
Escherichia coli = test system: Escherichia coli
[22] = test system: Staphylococcus aureus ATCC 25923
[23] = test system: Proteus mirabilis W99FI0089
[24] = test system: Staphylococcus aureus ATCC 35556
[25] = test system: Escherichia coli D31 CGSC 5165
[26] = test system: Pseudomonas aeruginosa ATCC 47085
[27] = test system: Acinetobacter baumannii ATCC 19606
[28] = test system: Bacillus subtilis CICC 24434
[29] = test system: Staphylococcus epidermidis LY8
[30] = test system: Shigella flexneri CICC 21534
[31] = test system: Salmonella enterica subsp. enterica serovar Choleraesuis C78-1
[32] = test system: Pasteurella multocida C48-3
Escherichia coli E44813 = test system: Escherichia coli E44813
[33] = test system: Salmonella typhimurium SL1344
[34] = test system: Listeria monocytogenes CICC 21533
[35] = test system: Shigella dysenteriae ATCC 51302
[36] = test system: Streptococcus pneumoniae ATCC 49619
[37] = test system: Bacillus subtilis ATCC 9372
[38] = test system: Salmonella typhimurium ATCC 50013
Candida krusei ATCC 6258 = test system: Candida krusei ATCC 6258
[39] = test system: Mannheimia haemolytica 82-25
[40] = test system: Serratia marcescens ATCC 14756
[41] = test system: Escherichia coli ATCC 12795
[42] = test system: Klebsiella pneumoniae ATCC 10031
[43] = test system: Enterococcus faecalis ATCC 29212
[44] = test system: Pseudomonas aeruginosa ATCC 27312

Structure (SMILES): CC(C)C[C@H](NC(=O)[C@@H](N)[C@@H](C)O)C(=O)N1CCC[C@H]1C(=O)N[C@@H](CCC(=O)O)C(=O)N[C@@H](Cc1c[nH]c2ccccc12)C(=O)N[C@@H](CC(=O)O)C(=O)N[C@@H](CC(=O)O)C(=O)N[C@@H](CCCN=C(N)N)C(=O)N[C@@H](CCCN=C(N)N)C(=O)N[C@H](C(=O)N[C@H](C(=O)N[C@@H](CC(N)=O)C(=O)N[C@@H](CO)C(N)=O)C(C)C)C(C)C [TLPEWDDRRVVNS]
MIC (Escherichia coli TOP 10): ≥ 63 µM

Structure (SMILES): CC[C@H](C)[C@H](NC(=O)[C@H](CCCCN)NC(=O)[C@H](CCCCN)NC(=O)[C@@H](N)CCC(N)=O)C(=O)N[C@@H](CCCN=C(N)N)C(=O)N[C@H](C(=O)N[C@@H](CCCN=C(N)N)C(=O)N[C@@H](CC(C)C)C(=O)N[C@@H](CO)C(=O)N[C@@H](C)C(=O)O)C(C)C [QKKIRVRLSA]
MIC [2]: ≥ 53.4 µM
MIC [3]: ≥ 107 µM
MIC [4]: ≥ 107 µM
MIC [5]: 6.68 µM (≈ 8 µg/mL)
MIC [6]: ≥ 107 µM
MIC [7]: 3.34 µM (≈ 4 µg/mL)
MIC [8]: 6.68 µM (≈ 8 µg/mL)
MIC [9]: ≥ 107 µM
MIC [10]: 3.34 µM (≈ 4 µg/mL)
MIC [11]: 6.68 µM (≈ 8 µg/mL)
MIC [12]: 3.34 µM (≈ 4 µg/mL)
MIC [13]: 3.34 µM (≈ 4 µg/mL)
MIC (Klebsiella pneumoniae): 6.68 µM (≈ 8 µg/mL)
MIC [14]: ≥ 107 µM
MIC [15]: ≥ 53.4 µM
MIC [16]: 13.4 µM (≈ 16 µg/mL)
MIC [17]: 13.4 µM (≈ 16 µg/mL)
MIC [18]: > 53.4 µM
MIC [19]: ≥ 107 µM
MIC [20]: 26.7 µM (≈ 32 µg/mL)
MIC [21]: ≥ 53.4 µM
MIC (Escherichia coli): 6.68 µM (≈ 8 µg/mL)
MIC [22]: > 107 µM
MIC [23]: ≥ 107 µM

Structure (SMILES): CC[C@H](C)[C@H](NC(=O)[C@H](CCCCN)NC(=O)CNC(=O)[C@H](CC(C)C)NC(=O)[C@@H](NC(=O)[C@H](C)NC(=O)[C@H](CCCCN)NC(=O)CNC(=O)[C@H](C)NC(=O)CNC(=O)[C@H](CCCCN)NC(=O)[C@H](CCSC)NC(=O)[C@H](CCCCN)NC(=O)[C@@H](NC(=O)[C@H](Cc1c[nH]c2ccccc12)NC(=O)[C@H](CC(C)C)NC(=O)[C@H](CCC(N)=O)NC(=O)[C@H](CCCCN)NC(=O)[C@H](CC(C)C)NC(=O)[C@@H](N)CC(C)C)[C@@H](C)O)C(C)C)C(=O)N[C@@H](CCCCN)C(=O)NCC(=O)N[C@@H](CC(C)C)C(=O)N[C@@H](CC(C)C)C(=O)O [LLKQLWTKMKGAGKAVLGKIKGLL]
MIC [24]: 1.88 µM (≈ 4.88 µg/mL)
MIC [25]: 0.94 µM (≈ 2.44 µg/mL)
MIC [26]: 7.5 µM (≈ 19.5 µg/mL)
MIC [27]: 0.94 µM (≈ 2.44 µg/mL)

Structure (SMILES): CC[C@H](C)[C@H](NC(=O)[C@@H](NC(=O)[C@H](Cc1ccccc1)NC(=O)[C@H](CCCCN)NC(=O)[C@@H]1CCCN1C(=O)[C@H](CCCCN)NC(=O)[C@H](CCC(N)=O)NC(=O)[C@@H]1CCCN1C(=O)[C@H](CCCN=C(N)N)NC(=O)[C@H](CCCN=C(N)N)NC(=O)[C@@H](NC(=O)[C@H](CCCN=C(N)N)NC(=O)[C@H](Cc1c[nH]c2ccccc12)NC(=O)[C@H](CC(C)C)NC(=O)[C@H](CCCN=C(N)N)NC(=O)[C@H](CC(=O)O)NC(=O)[C@@H](NC(=O)[C@@H](NC(=O)[C@@H](N)CCCN=C(N)N)[C@@H](C)CC)[C@@H](C)CC)C(C)C)C(C)C)C(=O)N[C@H](C(=O)N[C@@H](Cc1c[nH]c2ccccc12)C(=O)N[C@H](C(=O)N[C@@H](CCCN=C(N)N)C(=O)O)C(C)C)C(C)C [RIIDRLWRVRRPQKPKFVIVWVR]
MIC [28]: 0.259 µM (≈ 0.78 µg/mL)
MIC [29]: 4.14 µM (≈ 12.5 µg/mL)
MIC [30]: 24.9 µM (≈ 75 µg/mL)
MIC [31]: 0.129 µM (≈ 0.39 µg/mL)
MIC [32]: 0.259 µM (≈ 0.78 µg/mL)
MIC (Escherichia coli E44813): 2.07 µM (≈ 6.25 µg/mL)
MIC [33]: 0.259 µM (≈ 0.78 µg/mL)
MIC [34]: 20.7 µM (≈ 62.5 µg/mL)
MIC [22]: 0.0041 µM (≈ 0.0124 µg/mL)

Second part, led by results:

MIC [1]: ≥ 100 µM
Structure (SMILES): CC[C@H](C)[C@H](NC(=O)[C@H](CC(=O)O)NC(=O)[C@H](Cc1ccccc1)NC(=O)[C@H](CC(C)C)NC(=O)CN)C(=O)N[C@H](C(=O)N[C@@H](CCCCN)C(=O)N[C@@H](CCCCN)C(=O)N[C@@H](CC(C)C)C(=O)N[C@@H](CC(C)C)C(=O)N[C@@H](CCCCN)C(=O)N[C@@H](CC(C)C)C(=O)N[C@@H](CC(C)C)C(=O)N[C@@H](CCCCN)C(N)=O)C(C)C [GLFDIVKKLLKLLK]

MIC [35]: 16.4 µM (≈ 16 µg/mL)
MIC [36]: 16.4 µM (≈ 16 µg/mL)
MIC [12]: 8.21 µM (≈ 8 µg/mL)
MIC [13]: 8.21 µM (≈ 8 µg/mL)
MIC [37]: 8.21 µM (≈ 8 µg/mL)
MIC [38]: 16.4 µM (≈ 16 µg/mL)
MIC [22]: 65.7 µM (≈ 64 µg/mL)
Structure (SMILES): CC(C)C[C@H](NC(=O)[C@@H](NC(=O)CNC(=O)[C@H](C)NC(=O)[C@H](CC(C)C)NC(=O)[C@H](CS)NC(=O)[C@H](CCCN=C(N)N)NC(=O)[C@H](C)NC(=O)[C@H](CC(C)C)NC(=O)CN)[C@@H](C)O)C(=O)O [GLARCLAGTL]

MIC (Candida krusei ATCC 6258): ≥ 2770 µM
MIC [40]: ≥ 3000 µM
MIC [41]: ≥ 900 µM
MIC [42]: ≥ 850 µM
MIC [43]: 2670 µM (≈ 1880 µg/mL)
MIC [18]: 1080 µM (≈ 762 µg/mL)
MIC [44]: ≥ 1500 µM
Structure (SMILES): CC(C)[C@H](N)C(=O)N[C@@H](CC(=O)O)C(=O)N[C@@H](CC(=O)O)C(=O)N[C@@H](CC(=O)O)C(=O)N[C@@H](CC(=O)O)C(=O)N[C@@H](CCCCN)C(=O)O [VDDDDK]
MIC [39]: ≥ 160 µM
